# According to PMC12892976, “Alkylation-based optimization of antifungal FPPS inhibitors yields a potent, broad-spectrum lipophilic zoledronate derivative” (mBio, 2025):
# Key:
# [1] = test system: Rhizopus oryzae; test: MIC broth microdilution (CLSI); type: cell-based; settings: Rhizopus oryzae 04-14-364-1703
# Experimental: (§1) Antifungal susceptibility was determined by broth microdilution according to the CLSI guidelines described in M27-Ed4 ([16]).
# [2] = test system: Microsporum canis; test: checkerboard drug interaction (FICI, MICc); type: cell-based;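 also: simplified diagonal checkerboard screen pairing antifungals with FPPS inhibitors, FICI calculated under the Loewe additivity model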
# Experimental: (§2) Drug interactions between antifungals and FPPS inhibitors were investigated using a simplified checkerboard diagonal screening method ([45]). […] FICIs were determined according to the Loewe additivity model ([17]).
# [3] = test system: Cryptococcus gattii; test: MIC broth microdilution (CLSI); type: cell-based; settings: Cryptococcus gattii PNG27
# Experimental: as §1
# [4] = test system: Cryptococcus tetragattii; test: checkerboard drug interaction (FICI, MICc); type: cell-based;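 also: simplified diagonal checkerboard screen pairing antifungals with FPPS inhibitors, with FICI calculated under the Loewe additivity model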
# Experimental: as §2
# [5] = test system: Fusarium solani; test: MIC broth microdilution (CLSI); settings: Fusarium solani 04-16-056-1862
# Experimental: as §1
# [6] = test system: Paraphyton cookei; test: checkerboard drug interaction (FICI, MICc);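 also: simplified diagonal checkerboard screen pairing an antifungal with an FPPS inhibitor, FICI computed under the Loewe additivity model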
# Experimental: as §2
# [7] = test system: Cryptococcus bacillisporus; test: checkerboard drug interaction (FICI, MICc); type: cell-based;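 also: interaction of antifungals with FPPS inhibitors assessed by a simplified diagonal checkerboard screen, with FICI computed under the Loewe additivity model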
# Experimental: as §2
# [8] = test system: Paraphyton cookei; test: MIC broth microdilution (CLSI); type: cell-based; settings: Paraphyton cookei R-639
# Experimental: as §1
# [9] = test system: Trichophyton interdigitale; test: MIC broth microdilution (CLSI); type: cell-based; settings: Trichophyton interdigitale R-234
# Experimental: as §1
# [10] = test system: Mucor circinelloides; test: MIC broth microdilution (CLSI); type: cell-based; settings: Mucor circinelloides 80-14-240-5007
# Experimental: as §1
# [11] = test system: Aspergillus lentulus; test: MIC broth microdilution (CLSI); type: cell-based; settings: Aspergillus lentulus DTO 341-G7
# Experimental: as §1
# [12] = test system: Nannizzia gypsea; test: MIC broth microdilution (CLSI); type: cell-based; settings: Nannizzia gypsea R-131
# Experimental: as §1
# [13] = test system: Nannizzia gypsea; test: checkerboard drug interaction (FICI, MICc);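 also: simplified diagonal checkerboard screen pairing antifungals with FPPS inhibitors, FICI derived using the Loewe additivity model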
# Experimental: as §2
# [14] = test system: Fusarium solani; test: checkerboard drug interaction (FICI, MICc); type: cell-based;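 also: simplified diagonal checkerboard screen pairing antifungals with FPPS inhibitors, FICI derived under the Loewe additivity model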
# Experimental: as §2
# [15] = test system: Lomentospora prolificans; test: checkerboard drug interaction (FICI, MICc);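 also: simplified diagonal checkerboard screen pairing antifungals with FPPS inhibitors, FICI calculated under the Loewe additivity model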
# Experimental: as §2
# [16] = test system: Aspergillus terreus; test: MIC broth microdilution (CLSI); type: cell-based; settings: Aspergillus terreus 75-16-089-2500
# Experimental: as §1
# [17] = test system: Epidermophyton floccosum; test: checkerboard drug interaction (FICI, MICc);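 also: simplified diagonal checkerboard screen pairing antifungals with FPPS inhibitors, FICI calculated under the Loewe additivity model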
# Experimental: as §2
# [18] = test system: Pichia kudriavzevii; test: checkerboard drug interaction (FICI, MICc); type: cell-based;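 also: antifungal plus FPPS inhibitor interactions tested in a simplified diagonal checkerboard screen, with FICI calculated under the Loewe additivity model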
# Experimental: as §2
# [19] = test system: Pichia kudriavzevii; test: MIC broth microdilution (CLSI); type: cell-based; settings: Pichia kudriavzavii ATCC 6258
# Experimental: (§3) Antifungal susceptibility was determined by broth microdilution according to the CLSI guidelines described in M27-Ed4 ([16]). […] MFC was determined by back-plating drug-treated cultures from MIC broths onto SDA plates. The MFC was defined as the lowest concentration from which no colonies could be cultured.
# [20] = test system: Scedosporium apiospermum; test: MIC broth microdilution (CLSI); type: cell-based; settings: Scedosporium apiospermum 04-16-022-2268
# Experimental: as §1
# [21] = test system: Candida parapsilosis; test: MIC broth microdilution (CLSI); type: cell-based; settings: Candida parapsilosis ATCC 22018
# Experimental: as §3
# [22] = test system: Aspergillus parafelis; test: checkerboard drug interaction (FICI, MICc);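 also: simplified diagonal checkerboard screen pairing antifungals with FPPS inhibitors, FICI calculated under the Loewe additivity model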
# Experimental: as §2
# [23] = test system: Aspergillus niger; test: MIC broth microdilution (CLSI); type: cell-based; settings: Aspergillus niger 111
# Experimental: as §1
# [24] = test system: Microsporum canis; test: MIC broth microdilution (CLSI); settings: Microsporum canis R-232
# Experimental: as §1
# [25] = test system: Scedosporium apiospermum; test: checkerboard drug interaction (FICI, MICc); type: cell-based;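 also: simplified diagonal checkerboard screen of antifungal plus FPPS inhibitor pairs, with FICI computed under the Loewe additivity model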
# Experimental: as §2
# [26] = test system: Cryptococcus gattii; test: checkerboard drug interaction (FICI, MICc); type: cell-based;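 also: simplified diagonal checkerboard screen pairing antifungals with FPPS inhibitors, FICI computed under the Loewe additivity model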
# Experimental: as §2
# [27] = test system: Cryptococcus deneoformans; test: checkerboard drug interaction (FICI, MICc); type: cell-based
# Experimental: as §2
# [28] = test system: Aspergillus udagawae; test: checkerboard drug interaction (FICI, MICc); type: cell-based;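 also: simplified diagonal checkerboard screen pairing antifungals with FPPS inhibitors, FICI calculated using the Loewe additivity model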
# Experimental: as §2
# [29] = test system: Candida dubliniensis; test: MIC broth microdilution (CLSI); type: cell-based; settings: Candida dubliniensis M230642
# Experimental: as §1
# [30] = test system: Candida auris; test: MIC broth microdilution (CLSI); type: cell-based; settings: Candida auris CDC-0384
# Experimental: as §1
# [31] = test system: Trichophyton interdigitale; test: checkerboard drug interaction (FICI, MICc);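 also: simplified diagonal checkerboard screen pairing antifungals with FPPS inhibitors, FICI values calculated under the Loewe additivity model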
# Experimental: as §2
# [32] = test system: Aspergillus lentulus; test: checkerboard drug interaction (FICI, MICc); type: cell-based;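 also: simplified diagonal checkerboard screen pairing antifungals with FPPS inhibitors, with the interaction index calculated under the Loewe additivity model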
# Experimental: as §2
# [33] = test system: Aspergillus felis; test: MIC broth microdilution (CLSI); type: cell-based; settings: Aspergillus felis IHE87256683D6
# Experimental: as §1
# [34] = test system: Rhizopus oryzae; test: checkerboard drug interaction (FICI, MICc); type: cell-based
# Experimental: as §2
# [35] = test system: Nannizzia nana; test: MIC broth microdilution (CLSI); type: cell-based; settings: Nannizzia nana R-133
# Experimental: as §1
smiles,measurement,setting,value
"Nc1nc(=O)[nH]cc1F [5FC, 5-flucytosine]",MIC / MEC,[1],>64 µg/mL
same,antifungal MICc,[2]; in combination with 10-ZOL,256
same,antifungal MICc,[2]; in combination with ZOL,512
same,MIC / MEC,[3],0.5 µg/mL
same,antifungal MICc,[4]; in combination with 10-ZOL,0.5
same,antifungal MICc,[4]; in combination with ZOL,0.5
same,MIC / MEC,[5],>64 µg/mL
same,antifungal MICc,[6]; in combination with 10-ZOL,512
same,antifungal MICc,[6]; in combination with ZOL,512
same,antifungal MICc,[7]; in combination with 10-ZOL,1
same,antifungal MICc,[7]; in combination with ZOL,0.125
same,MIC / MEC,[8],>64 µg/mL
same,MIC / MEC,[9],>64 µg/mL
same,MIC / MEC,[10],>64 µg/mL
same,MIC / MEC,[11],>64 µg/mL
same,MIC / MEC,[12],>64 µg/mL
same,antifungal MICc,[13]; in combination with 10-ZOL,512
same,antifungal MICc,[13]; in combination with ZOL,256
same,antifungal MICc,[14]; in combination with 10-ZOL,512
same,antifungal MICc,[14]; in combination with ZOL,256
same,antifungal MICc,[15]; in combination with 10-ZOL,256
same,antifungal MICc,[15]; in combination with ZOL,256
same,MIC / MEC,[16],64 µg/mL
same,antifungal MICc,[17]; in combination with 10-ZOL,32
same,antifungal MICc,[17]; in combination with ZOL,32
same,antifungal MICc,[18]; in combination with 10-ZOL,16
same,antifungal MICc,[18]; in combination with ZOL,2
same,MIC / MEC,[19],16 µg/mL
same,MIC / MEC,[20],>64 µg/mL
same,MIC / MEC,[21],0.5 µg/mL
same,antifungal MICc,[22]; in combination with 10-ZOL,512
same,antifungal MICc,[22]; in combination with ZOL,128
same,MIC / MEC,[23],>64 µg/mL
same,MIC / MEC,[24],>64 µg/mL
same,antifungal MICc,[25]; in combination with 10-ZOL,256
same,antifungal MICc,[25]; in combination with ZOL,256
same,antifungal MICc,[26]; in combination with 10-ZOL,0.25
same,antifungal MICc,[26]; in combination with ZOL,0.125
same,antifungal MICc,[27]; in combination with 10-ZOL,0.25
same,antifungal MICc,[27]; in combination with ZOL,0.5
same,antifungal MICc,[28]; in combination with 10-ZOL,64
same,antifungal MICc,[28]; in combination with ZOL,256
same,MIC / MEC,[29],0.25 µg/mL
same,MIC / MEC,[30],2 µg/mL
same,antifungal MICc,[31]; in combination with 10-ZOL,64
same,antifungal MICc,[31]; in combination with ZOL,128
same,antifungal MICc,[32]; in combination with 10-ZOL,512
same,antifungal MICc,[32]; in combination with ZOL,256
same,MIC / MEC,[33],>64 µg/mL
same,antifungal MICc,[34]; in combination with 10-ZOL,512
same,antifungal MICc,[34]; in combination with ZOL,256
same,MIC / MEC,[35],32 µg/mL
"OC(Cn1cncn1)(Cn1cncn1)c1ccc(F)cc1F [FLC, fluconazole]",antifungal MICc,[2]; in combination with 10-ZOL,64
same,antifungal MICc,[2]; in combination with ZOL,32
same,MIC / MEC,[3],2 µg/mL
same,antifungal MICc,[4]; in combination with 10-ZOL,2
same,antifungal MICc,[4]; in combination with ZOL,1
same,antifungal MICc,[6]; in combination with 10-ZOL,8
same,antifungal MICc,[7]; in combination with 10-ZOL,1
same,antifungal MICc,[7]; in combination with ZOL,0.125
same,antifungal MICc,[13]; in combination with 10-ZOL,64
same,antifungal MICc,[14]; in combination with 10-ZOL,64
same,antifungal MICc,[14]; in combination with ZOL,32
same,antifungal MICc,[15]; in combination with ZOL,512
same,MIC / MEC,[16],64 µg/mL
same,antifungal MICc,[17]; in combination with 10-ZOL,32
same,antifungal MICc,[18]; in combination with 10-ZOL,16
same,antifungal MICc,[18]; in combination with ZOL,8
same,MIC / MEC,[19],32 µg/mL
same,MIC / MEC,[21],2 µg/mL
same,antifungal MICc,[22]; in combination with 10-ZOL,4
same,antifungal MICc,[26]; in combination with 10-ZOL,1
same,antifungal MICc,[26]; in combination with ZOL,0.25
same,antifungal MICc,[27]; in combination with 10-ZOL,0.25
same,antifungal MICc,[27]; in combination with ZOL,0.125
same,antifungal MICc,[28]; in combination with 10-ZOL,4
same,MIC / MEC,[29],0.125 µg/mL
same,antifungal MICc,[31]; in combination with 10-ZOL,32
same,antifungal MICc,[32]; in combination with 10-ZOL,4
same,antifungal MICc,[32]; in combination with ZOL,64
same,antifungal MICc,[34]; in combination with 10-ZOL,32
same,MIC / MEC,[35],32 µg/mL
